Data on 16 compounds can be found in patent publication US20260285853A1, “COMPOUNDS AND METHODS FOR MODULATING SPLICING” (REMIX THERAPEUTICS INC., priority 2023, published 2026).

pIC50: −log10 of the molar value.

Common to all, as to format: cell-based
Test [1] has as its system MYB mRNA. As to the kind of experiment: Splicing RT-qPCR assay (THP), Table 2A. The conditions noted are these: Table 2A, THP; for AC50: MYB alternative junction (AJ) mRNA, read-out: MYB AJ (AC50, increase in alternative junction mRNA); for pIC50: MYB canonical junction (CJ) mRNA, read-out: MYB CJ (IC50, decrease in canonical junction mRNA).
Test [2] relates to HTT mRNA. Put plainly: Splicing RT-qPCR assay (THP), Table 2A. To be noted: Table 2A, THP; for AC50: HTT alternative junction (AJ) mRNA, read-out: HTT AJ (AC50, increase in alternative junction mRNA); for pIC50: HTT canonical junction (CJ) mRNA, read-out: HTT CJ (IC50, decrease in canonical junction mRNA).
The subject of test [3] is SH-SY5Y (human neuroblastoma) cells. As to the kind of experiment: Cell viability, Cell Titer Glo 2.0 assay. The conditions noted are these: read-out: Viability SHSY5Y.3 GI50. The method in brief: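 Steps: serial DMSO dilution of compound, 1:100 dilution into medium, addition to cells (0.1% DMSO final). Incubate 72 h at 37 °C, 5% CO2. Assay with CellTiter-Glo 2.0 reagent.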

The test system of test [4] is MYB mRNA. Put plainly: Gene panel canonical junction qPCR assay, decrease in CJ mRNA, Table 3. To be noted: decrease in CJ mRNA levels, canonical junction qPCR, gene panel. The method in brief:
(§1)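 IC50 is the concentration giving 50% response in decrease of the canonical junction transcript, fitted with a 4-parameter logistic equation. Transcripts were quantified by RT-qPCR in A673 or K562 cells after 24 h exposure to compounds dosed up to 10 uM in 3-fold steps.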

In test [5] the test system is HTT mRNA. Described as above. The conditions noted are these: decrease in CJ mRNA levels, canonical junction qPCR, gene panel. The method in brief:
as §1

Take `COc1nc2c(C(=O)Nc3ccc4nn(C)cc4c3)ccc(N3C[C@H](C)N[C@@H](C)C3)c2s1` [Compound 800, 7-[(3S,5S)-3,5-dimethylpiperazin-1-yl]-2-methoxy-N-(2-methylindazol-5-yl)-1,3-benzothiazole-4-carboxamide]: the concentration at half-maximal activity (AC50) was less than 0.1 µM in the test on MYB mRNA [1] and 0.1 to 1 µM in the test on HTT mRNA [2]. Moreover, the negative logarithm of the IC50 (pIC50) with MYB mRNA [1] is greater than 7.00; with HTT mRNA [2], 6.00 to 7.00; with MYB mRNA [4] it was greater than 7.00; in the test on HTT mRNA [5], 6.00 to 7.00. Moreover, the GI50 in test [3] was less than 0.1 µM.
On to `COc1nc2c(C(=O)Nc3cc(F)c4nn(C)cc4c3)ccc(N3CC4CCC(C3)N4)c2s1` [Compound 801, 7-(3,8-diazabicyclo[3.2.1]octan-3-yl)-N-(7-fluoro-2-methyl-indazol-5-yl)-2-methoxy-1,3-benzothiazole-4-carboxamide], for which the AC50 in the test with MYB mRNA [1] is less than 0.1 µM; with HTT mRNA [2], 1 to 10 µM. Moreover, the pIC50 with MYB mRNA [1] is greater than 7.00; in the test on HTT mRNA [2], 5.00 to 6.00; in the test with MYB mRNA [4] it was greater than 7.00; with HTT mRNA [5], 5.00 to 6.00. For the same compound, the 50% growth inhibitory concentration (GI50) in test [3] is 0.1 to 1 µM.
As for `Cc1cn2cc(NC(=O)c3ccc(N4CCC(NC5CC5)CC4)c4cn(C)nc34)nc2c(Cn2ccnn2)n1` [Compound 803], the AC50 with MYB mRNA [1] and in the test on HTT mRNA [2] was greater than 10 µM in each case. For the same compound, the negative-log IC50 (pIC50) with MYB mRNA [1], with HTT mRNA [2], in the test with MYB mRNA [4] and with HTT mRNA [5] was less than 5.00 in each case. Also, in test [3], the GI50 fell in the range of 1 to 10 µM.
As to `Cc1cn2cc(NC(=O)c3ccc(N4CCC(NC5CC5)CC4)c4cn(C)nc34)nc2c(CNC2(C)COC2)n1` [Compound 804, 4-[4-(cyclopropylamino)-1-piperidyl]-2-methyl-N-[6-methyl-8-[[(3-methyloxetan-3-yl)amino]methyl]imidazo[1,2-a]pyrazin-2-yl]indazole-7-carboxamide], the half-maximal activity concentration (AC50) in the test with MYB mRNA [1] and in the test on HTT mRNA [2] was greater than 10 µM each time. Moreover, the pIC50 in the test with MYB mRNA [1], in the test with HTT mRNA [2], with MYB mRNA [4] and in the test with HTT mRNA [5] was less than 5.00 each time. Besides, the GI50 in test [3] is 1 to 10 µM.
As for `Cc1cn2cc(NC(=O)c3ccc(N4CCC(NC5CC5)CC4)c4cn(C)nc34)nc2c(CCS(=O)(=O)N(C)C)n1` [Compound 805], the half-maximal activity concentration (AC50) in the test with MYB mRNA [1] and in the test with HTT mRNA [2] was greater than 10 µM in each case. For the same compound, the negative-log IC50 (pIC50) in the test on MYB mRNA [1] is 5.00 to 6.00; in the test on HTT mRNA [2], less than 5.00; with MYB mRNA [4] it was 5.00 to 6.00; with HTT mRNA [5], less than 5.00. Further, the concentration for 50% growth inhibition (GI50) in test [3] is 1 to 10 µM.
For the compound `COc1cc2c(N3CCC(NC4CC4)CC3)ccc(C(=O)Nc3cn4cc(C)nc(CNS(C)(=O)=O)c4n3)n2n1` [Compound 806], the AC50 with MYB mRNA [1] was 1 to 10 µM; in the test on HTT mRNA [2], greater than 10 µM. Moreover, the pIC50 in the test with MYB mRNA [1] is 5.00 to 6.00; in the test on HTT mRNA [2], less than 5.00; in the test with MYB mRNA [4], 5.00 to 6.00; in the test on HTT mRNA [5], less than 5.00. Besides, the GI50 in test [3] lay within 1 to 10 µM.
Regarding `COC(=O)NCc1nc(C)cn2cc(NC(=O)c3ccc(N4CCC(NC5CC5)CC4)c4cn(C)nc34)nc12` [Compound 807], the concentration at half-maximal activity (AC50) with MYB mRNA [1] and in the test on HTT mRNA [2] was greater than 10 µM throughout. In addition, the negative logarithm of the IC50 (pIC50) in the test on MYB mRNA [1], with HTT mRNA [2], with MYB mRNA [4] and in the test with HTT mRNA [5] was less than 5.00 each time. Besides, the 50% growth inhibitory concentration (GI50) in test [3] lay within 1 to 10 µM.
On to `COc1nc2c(C(=O)Nc3ccc4nn(C)cc4c3C(C)=O)ccc(N3C[C@H](C)N[C@@H](C)C3)c2s1` [Compound 808], for which the concentration at half-maximal activity (AC50) with MYB mRNA [1] is greater than 10 µM; with HTT mRNA [2], 1 to 10 µM. The pIC50 with MYB mRNA [1], with HTT mRNA [2], in the test with MYB mRNA [4] and in the test with HTT mRNA [5] was less than 5.00 in each case. Also, the GI50 in test [3] is 1 to 10 µM.
For the compound `COc1nc2c(C(=O)Nc3cc4cn(C)nc4nc3OC)ccc(N3C[C@H](C)N[C@@H](C)C3)c2s1` [Compound 809], the AC50 was less than 0.1 µM in the test with MYB mRNA [1] and greater than 10 µM in the test on HTT mRNA [2]. Moreover, the pIC50 is 6.00 to 7.00 in the test with MYB mRNA [1], less than 5.00 with HTT mRNA [2], 6.00 to 7.00 in the test on MYB mRNA [4] and less than 5.00 in the test on HTT mRNA [5]. In addition, the GI50 in test [3] lay within 0.1 to 1 µM.
Regarding `COc1nc2c(C(=O)Nc3cc(F)c4nc(CO)cn4c3)ccc(N3C[C@H](C)N[C@@H](C)C3)c2s1` [Compound 810], the concentration at half-maximal activity (AC50) was less than 0.1 µM in the test on MYB mRNA [1] and 0.1 to 1 µM with HTT mRNA [2]. Further, the pIC50 in the test with MYB mRNA [1] was greater than 7.00; in the test on HTT mRNA [2], 5.00 to 6.00; in the test on MYB mRNA [4] it was greater than 7.00; in the test with HTT mRNA [5] it was 5.00 to 6.00. For the same compound, the 50% growth inhibitory concentration (GI50) in test [3] was less than 0.1 µM.
In the case of `Cc1cn2cc(NC(=O)c3ccc(N4CCNCC4)c4cn(C)nc34)nc2c(CNS(C)(=O)=O)n1` [Compound 811], the concentration at half-maximal activity (AC50) in the test on MYB mRNA [1] is 1 to 10 µM; with HTT mRNA [2], greater than 10 µM. Besides, the negative-log IC50 (pIC50) with MYB mRNA [1], with HTT mRNA [2], in the test with MYB mRNA [4] and in the test with HTT mRNA [5] was less than 5.00 each time. The GI50 in test [3] was greater than 10 µM.
With `CCNCc1nc(C)cn2cc(NC(=O)c3ccc(N4CCC(NC5CC5)CC4)c4cn(C)nc34)nc12` [Compound 812], the AC50 in the test on MYB mRNA [1] and with HTT mRNA [2] was greater than 10 µM in each case. Also, the negative-log IC50 (pIC50) with MYB mRNA [1], in the test with HTT mRNA [2], in the test with MYB mRNA [4] and in the test with HTT mRNA [5] was less than 5.00 throughout. In addition, the concentration for 50% growth inhibition (GI50) in test [3] is 1 to 10 µM.
As for `Cn1cc2cc(NC(=O)c3ccc(N4CCC(NC5CC5)CC4)c4cn(C)nc34)cc(CN)c2n1` [Compound 813, N-[7-(aminomethyl)-2-methyl-indazol-5-yl]-4-[4-(cyclopropylamino)-1-piperidyl]-2-methyl-indazole-7-carboxamide], the AC50 is 1 to 10 µM in the test with MYB mRNA [1] and greater than 10 µM with HTT mRNA [2]. The pIC50 in the test on MYB mRNA [1] was 5.00 to 6.00; in the test with HTT mRNA [2] it was less than 5.00; with MYB mRNA [4], 5.00 to 6.00; in the test with HTT mRNA [5] it was less than 5.00. For the same compound, in test [3], the concentration for 50% growth inhibition (GI50) is greater than 10 µM.
Take `COC(=O)NCc1cc(NC(=O)c2ccc(N3CCC(NC4CC4)CC3)c3cn(C)nc23)cc2cn(C)nc12` [Compound 814]: the AC50 is 1 to 10 µM in the test with MYB mRNA [1] and greater than 10 µM in the test on HTT mRNA [2]. The negative logarithm of the IC50 (pIC50) in the test with MYB mRNA [1] is 6.00 to 7.00; with HTT mRNA [2], less than 5.00; with MYB mRNA [4] it was 6.00 to 7.00; in the test with HTT mRNA [5], less than 5.00. Moreover, the concentration for 50% growth inhibition (GI50) in test [3] lay in the range of 1 to 10 µM.
For `Cn1cc2cc(NC(=O)c3ccc(N4CCC(N(C(=O)OC(C)(C)C)C5CC5)CC4)c4cn(C)nc34)cc(CN)c2n1` [Compound 815], the AC50 in the test with MYB mRNA [1] and in the test with HTT mRNA [2] was greater than 10 µM throughout. Besides, the pIC50 with MYB mRNA [1], in the test on HTT mRNA [2], in the test on MYB mRNA [4] and in the test on HTT mRNA [5] was less than 5.00 in each case. Moreover, the concentration for 50% growth inhibition (GI50) in test [3] was 1 to 10 µM.
`Cc1cn2cc(NC(=O)c3ccc(N4CCC(NC5CC5)CC4)c4cn(C)nc34)cc(CNS(C)(=O)=O)c2n1` [Compound 816, 4-[4-(cyclopropylamino)-1-piperidyl]-N-[8-(methanesulfonamidomethyl)-2-methyl-imidazo[1,2-a]pyridin-6-yl]-2-methyl-indazole-7-carboxamide]: the half-maximal activity concentration (AC50) is 1 to 10 µM with MYB mRNA [1] and greater than 10 µM with HTT mRNA [2]. The pIC50 in the test with MYB mRNA [1] is 5.00 to 6.00; in the test on HTT mRNA [2] it was less than 5.00; in the test on MYB mRNA [4] it was 5.00 to 6.00; in the test on HTT mRNA [5], less than 5.00. Also, in test [3], the concentration for 50% growth inhibition (GI50) is greater than 10 µM.
